Species on record: Rattus norvegicus
Assay: Open TG-GATES - Regimen: Single
Type: toxicity, organism-based, Sprague-Dawley
Design: regimen Single, gender Male, age 6 weeks
Settings: in vivo, po, 100 mg/kg, route gavage, dose level Low; for APTT / Bas / Eos / Fbg / Hb / Ht / Lym / MCH / MCHC / MCV / Mono / Neu / PT / Plat / RBC / Ret / WBC: tissue Blood; for KIDNEY_L / KIDNEY_R / KIDNEY_TOTAL: tissue Kidney; for LIVER: tissue Liver; for A/G / ALP / ALT / AST / BUN / CRE / Ca / Cl / DBIL / GLC / IP / K / LDH / Na / PL / RALB / TBIL / TC / TG / TP / gamma-GTP: tissue Plasma

`Cc1nnc2n1-c1ccc(Cl)cc1C(c1ccccc1Cl)=NC2` [TRIAZOLAM] was tested, and the TERMINAL_BW (3 h) was 192 g, the APTT (3 h) was 17.6 s and the Bas (3 h) was 0%. For the same compound, the Eos (3 h) was 1%, the Fbg (3 h) was 279.8 mg/dL and the Hb (3 h) was 13.9 g/dL. For the same compound, the Ht (3 h) was 42.1%, the Lym (3 h) was 75% and the MCH (3 h) was 21 pg. It also gave an MCHC (3 h) of 33%, an MCV (3 h) of 63.8 fL and a Mono (3 h) of 3%. For the same compound, the Neu (3 h) was 20.4%, the PT (3 h) was 13.5 s and the Plat (3 h) was 121.2 x10_4/uL. The RBC (3 h) was 661.2 x10_4/ul, the Ret (3 h) was 9.1% and the WBC (3 h) was 73.1 x10_2/uL. The KIDNEY_L (3 h) was 0.9 g, the KIDNEY_R (3 h) was 0.8 g and the KIDNEY_TOTAL (3 h) was 1.7 g. The LIVER (3 h) was 8 g, the A/G (3 h) was 0.9 and the ALP (3 h) was 1479.6 IU/L. The ALT (3 h) was 40.8 IU/L, the AST (3 h) was 75.4 IU/L and the BUN (3 h) was 9.4 mg/dL. For the same compound, the CRE (3 h) was 0.2 mg/dL, the Ca (3 h) was 11 mg/dL and the Cl (3 h) was 104.2 meq/L. It also gave a DBIL (3 h) of 0.008 mg/dL, a GLC (3 h) of 176.4 mg/dL and an IP (3 h) of 10.2 mg/dL. For the same compound, the K (3 h) was 4.3 meq/L, the LDH (3 h) was 80.4 IU/L and the Na (3 h) was 141.4 meq/L. It also gave a PL (3 h) of 144.4 mg/dL, an RALB (3 h) of 2.4 g/dL and a TBIL (3 h) of 0.062 mg/dL. It also gave a TC (3 h) of 75.8 mg/dL, a TG (3 h) of 40.6 mg/dL and a TP (3 h) of 5.1 g/dL. For the same compound, the gamma-GTP (3 h) was 1.4 IU/L, the TERMINAL_BW (6 h) was 189.9 g and the APTT (6 h) was 19.9 s. It also gave a Bas (6 h) of 0%, an Eos (6 h) of 0.8% and a Fbg (6 h) of 284 mg/dL. For the same compound, the Hb (6 h) was 13.9 g/dL, the Ht (6 h) was 42.5% and the Lym (6 h) was 76.8%. The MCH (6 h) was 21.1 pg, the MCHC (6 h) was 32.6% and the MCV (6 h) was 64.7 fL. It also gave a Mono (6 h) of 2.2%, a Neu (6 h) of 19.6% and a PT (6 h) of 13.4 s. It also gave a Plat (6 h) of 121.9 x10_4/uL, an RBC (6 h) of 657.4 x10_4/ul and a Ret (6 h) of 9.3%. It also gave a WBC (6 h) of 73 x10_2/uL, a KIDNEY_L (6 h) of 0.9 g and a KIDNEY_R (6 h) of 0.9 g. It also gave a KIDNEY_TOTAL (6 h) of 1.7 g, an LIVER (6 h) of 8.1 g and an A/G (6 h) of 0.9. The ALP (6 h) was 1351.6 IU/L, the ALT (6 h) was 40.4 IU/L and the AST (6 h) was 69.8 IU/L. The BUN (6 h) was 7.6 mg/dL, the CRE (6 h) was 0.1 mg/dL and the Ca (6 h) was 10.9 mg/dL. It also gave a Cl (6 h) of 104.4 meq/L, a DBIL (6 h) of 0.008 mg/dL and a GLC (6 h) of 186.2 mg/dL. For the same compound, the IP (6 h) was 10.5 mg/dL, the K (6 h) was 4.2 meq/L and the LDH (6 h) was 70 IU/L. The Na (6 h) was 140.8 meq/L, the PL (6 h) was 142.8 mg/dL and the RALB (6 h) was 2.5 g/dL. For the same compound, the TBIL (6 h) was 0.062 mg/dL, the TC (6 h) was 78.6 mg/dL and the TG (6 h) was 34 mg/dL. The TP (6 h) was 5.1 g/dL, the gamma-GTP (6 h) was 1.2 IU/L and the TERMINAL_BW (9 h) was 190.1 g. For the same compound, the APTT (9 h) was 18.1 s, the Bas (9 h) was 0% and the Eos (9 h) was 1.6%. It also gave a Fbg (9 h) of 285.4 mg/dL, a Hb (9 h) of 13.4 g/dL and a Ht (9 h) of 41%. The Lym (9 h) was 73.8%, the MCH (9 h) was 20.6 pg and the MCHC (9 h) was 32.7%. The MCV (9 h) was 63 fL, the Mono (9 h) was 2.2% and the Neu (9 h) was 21.6%. The PT (9 h) was 13.7 s, the Plat (9 h) was 122.5 x10_4/uL and the RBC (9 h) was 651.2 x10_4/ul. For the same compound, the Ret (9 h) was 9.4%, the WBC (9 h) was 68 x10_2/uL and the KIDNEY_L (9 h) was 0.9 g. It also gave a KIDNEY_R (9 h) of 0.9 g, a KIDNEY_TOTAL (9 h) of 1.7 g and an LIVER (9 h) of 7.5 g. The A/G (9 h) was 0.9, the ALP (9 h) was 1617.4 IU/L and the ALT (9 h) was 35.8 IU/L. It also gave an AST (9 h) of 65.4 IU/L, a BUN (9 h) of 8.4 mg/dL and a CRE (9 h) of 0.1 mg/dL. It also gave a Ca (9 h) of 10.8 mg/dL, a Cl (9 h) of 105 meq/L and a DBIL (9 h) of 0.014 mg/dL. It also gave a GLC (9 h) of 181.8 mg/dL, an IP (9 h) of 10.6 mg/dL and a K (9 h) of 4.5 meq/L. It also gave an LDH (9 h) of 68.8 IU/L, a Na (9 h) of 141 meq/L and a PL (9 h) of 150.6 mg/dL. For the same compound, the RALB (9 h) was 2.4 g/dL, the TBIL (9 h) was 0.062 mg/dL and the TC (9 h) was 75.4 mg/dL. It also gave a TG (9 h) of 65 mg/dL, a TP (9 h) of 5.2 g/dL and a gamma-GTP (9 h) of 1 IU/L. For the same compound, the TERMINAL_BW (24 h) was 208.4 g, the APTT (24 h) was 20.1 s and the Bas (24 h) was 0%. The Eos (24 h) was 1%, the Fbg (24 h) was 279 mg/dL and the Hb (24 h) was 13.3 g/dL. The Ht (24 h) was 40.5%, the Lym (24 h) was 69% and the MCH (24 h) was 20.7 pg. For the same compound, the MCHC (24 h) was 32.8%, the MCV (24 h) was 63.2 fL and the Mono (24 h) was 3.2%. For the same compound, the Neu (24 h) was 26.2%, the PT (24 h) was 13.4 s and the Plat (24 h) was 123.8 x10_4/uL. It also gave an RBC (24 h) of 640.8 x10_4/ul, a Ret (24 h) of 8.2% and a WBC (24 h) of 109.3 x10_2/uL. It also gave a KIDNEY_L (24 h) of 0.9 g, a KIDNEY_R (24 h) of 0.9 g and a KIDNEY_TOTAL (24 h) of 1.8 g. It also gave an LIVER (24 h) of 9.2 g, an A/G (24 h) of 0.9 and an ALP (24 h) of 1675 IU/L. For the same compound, the ALT (24 h) was 41.6 IU/L, the AST (24 h) was 68.2 IU/L and the BUN (24 h) was 12 mg/dL. The CRE (24 h) was 0.2 mg/dL, the Ca (24 h) was 11.3 mg/dL and the Cl (24 h) was 104.2 meq/L. The DBIL (24 h) was 0.01 mg/dL, the GLC (24 h) was 183.6 mg/dL and the IP (24 h) was 9.4 mg/dL. The K (24 h) was 4.1 meq/L, the LDH (24 h) was 91 IU/L and the Na (24 h) was 141.2 meq/L. The PL (24 h) was 158.2 mg/dL, the RALB (24 h) was 2.5 g/dL and the TBIL (24 h) was 0.06 mg/dL. It also gave a TC (24 h) of 82.2 mg/dL, a TG (24 h) of 83.8 mg/dL and a TP (24 h) of 5.4 g/dL. For the same compound, the gamma-GTP (24 h) was 1.2 IU/L.
